Legend:
naïve CD4+ T cells = assay: Human regulatory T cell differentiation assay; format: cell-based; conditions: 6 days
Experimental: Peripheral blood mononuclear cells (PBMCs) from whole blood donated by health volunteers were separated by Ficoll-Paque gradient centrifugation and naïve CD4^+ T cells were subsequently isolated using magnet beads (EasySep™ Human Naïve CD4^+ T Cell Isolation Kit, Cambridge, Mass.). For regulatory T cell (Treg) differentiation assay, naïve CD4^+ T cells were cultured (1-10×10^4 cells) in CTS OpTmizer medium for 6 days and stimulated with 5 ng/ml TGF-β, 100 U/ml IL-2, and ImmunoCult™ Human […] T Cell Activator; Stemcell #10990) with/without our Compounds. Cell viability was determined using a viability dye (eBioscience Fixable Viability Dye eFluor 780: ThermoFisher 65-0865-14) at 1:500 dilution. The cells were gated for Treg, defined as Live, CD11c^−, CD14^−, CD19^−, CD8^−, CD4^+, CD3^+, CD25^+, FOXP3^+. Percent (%) Tregs were calculated as percentage of CD4^+, CD25^+, FOXP3^+ cells over total CD4^+ T cells. Statistical analysis was performed with GraphPad Prism Software Using One-Way ANOVA.

Mouse 3T3-L1 cells = assay: Mouse adipocyte lipolysis assay; format: cell-based; conditions: for activity at 3000 µM: 3 mM
Experimental: Once the cells became confluent, they were seeded into a tissue culture treated 96 well plate. […] After 14 days of differentiation, cells were treated with compounds of interest. After 24 hours post-treatment, the cell viability was assessed using CellTiter-Glo Luminescent Cell Viability Assay from Promega, and lipolysis was determined using Lipolysis Assay Kit from ZenBio.

Mouse myocyte = Mouse myocyte lipolysis assay; format: cell-based; conditions: for activity at 3000 µM: 3 mM
Experimental: Cells were obtained from ATCC and cultured in Dulbecco's Modified Eagle's medium (DMEM) containing 20% fetal bovine serum and 1% penicillin/streptomycin at 37° C. in an incubator with 5% CO2. Once the cells became confluent, they were seeded into a tissue culture treated 96 well plate. The next day, the medium containing DMEM with 2% equine serum was used to start differentiation. Once cells were fully differentiated, they were treated with indicated compounds.

C57BL/6 DIO mice = assay: DIO animal model of NAFLD/NASH in young mice (Example 16); format: in vivo; set-up: OGTT: unit not given beside the values; conditions: for % Weight change: 12 weeks; for OGTT: Day 82, 2 g/kg glucose PO; for % Difference compared to ctrl: weight change vs HFD ctrl
Excerpt: Species (number, sex, age/weight): C57BL/6 DIO mice (120+10 spares, male, ˜18 weeks of age) from Jackson Laboratories, Stock #380050. Note: 18 week old DIO mice sent sent with a minimum body weight of 39 grams. Spare animals may be used to replace study animals, as required, euthanized after completion of dose administration or transferred to Testing Facility Docket 07-12.
Cage Side Observations (Animal Health Checks): Cage side animal's health checks will be performed at least once daily to check for general health, mortality and moribundity. Clinical Observations: Clinical observations will be performed per exception. Body Weights: Body weights for all animals will be recorded prior to Day 1 and at least twice weekly thereafter, including prior to necropsy ([…]).
Dose Administration: Dosing for Groups 3-8 will be provided ad libitum in the diet. Dosing for Groups 9 (Saline) and 10 (Semaglutide at 123.4 μg/kg) in a 5 mL/kg volume, will begin on Day 1, and be performed 3 times weekly for 12 weeks by SC administration. Residual Test Article: All residual high fat diets will be frozen at nominally −20° C., and at the end of the study, several pellets of the diets for groups 2-9 (in 50-ml conical tubes) will be shipped to Sponsor, and the rest will be discarded. Residual control diets (group 1) will be stored ambient, and at the end of the study, several pellets in a 50 mL conical tube will be shipped to Sponsor and the rest is discarded. Residual test material for Group 10 will be stored at nominally −70° C., and at the end of the study, an aliquot of test material will be shipped to Sponsor, and the rest will be discarded.
(§1) Oral Glucose Tolerance Test (oGTT) On Day 82 (+/−2 days) an oGTT will be performed. Following an approximate 4 hour fast, 2 g/kg glucose (50% Dextrose diluted in sterile water for injection to a concentration of 0.4 g/mL) will be administered at 5 mL/kg via oral gavage (PO). Blood will be collected pre-glucose challenge (t=0) and at t=15, 30, 60, 90, and 120 minutes following the glucose challenge. Whole blood glucose levels will be evaluated at all time points using a handheld glucometer and will be reported in the Data Submission. This will be scheduled on a Tuesday or Thursday to avoid Group 9/10 dosing days.
as §1, with “Submission.” for “Submission. This will be scheduled on a Tuesday or Thursday to avoid Group 9/10 dosing days.”

[1] = Assay 2. Stability in Simulated Intestinal Fluid (SIF); format: in vitro ADME; conditions: 1 μM, 37° C., SIF pH 6.7 with pancreatin
Summary of the method: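 Degradation rate measured by LC/MS after acetonitrile quench of timed aliquots, starting at T0. Test compound 1 μM in simulated intestinal fluid (pH 6.7 phosphate buffer, FaSSIF powder, pancreatin), shaken at 37 °C.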

[2] = Assay 1. Stability in Simulated Gastric Fluid (SGF); format: in vitro ADME; conditions: 1 μM, 37° C., SGF pH 1.6 with pepsin
Summary of the method: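 Simulated gastric fluid, prepared fresh as NaCl buffer at pH 1.6 with 0.1 mg/mL pepsin and FaSSIF powder, received test compound to 1 μM final and was held at 37 °C. LC/MS of acetonitrile-quenched samples, taken immediately and then periodically, gave degradation rates.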

[3] = Mus musculus, 3T3-L1, 24 hours, read-out: Lipolysis Free Fatty Acids % DMSO
[4] = Mus musculus, read-out: Free glycerol % DMSO

CCCC(=O)O [Butyric Acid]
Cell viability % DMSO (naïve CD4+ T cells; 3 mM): − (<90%: −)
activity at 3000 µM (naïve CD4+ T cells; Homo sapiens, CD4+ T, 144 h, 3 mM, read-out: Treg induction % DMSO): < 90%

CCCC(=O)O [Butyric acid]
activity at 3000 µM (Mouse 3T3-L1 cells; [3]): 50 to 70%
activity at 3000 µM (Mouse myocyte; [4]): < 50%

CCCC(=O)Oc1cc(OC(=O)CCC)c2c(=O)c(OC(=O)CCC)c(-c3ccc(OC(=O)CCC)c(OC(=O)CCC)c3)oc2c1 [Compound 15, [2-butanoyloxy-4-[3,5,7-tri(butanoyloxy)-4-oxo-chromen-2-yl]phenyl] butanoate]
% Weight change (C57BL/6 DIO mice; ad libitum in HFD): 23%
OGTT (C57BL/6 DIO mice; ad libitum in HFD, ctrl HFD): 32722
% HbA1c (C57BL/6 DIO mice; ad libitum in HFD, ctrl HFD): 6.50%
% Difference compared to ctrl (C57BL/6 DIO mice; ad libitum in HFD): 0%
Assay 2 (SIF) (% @ Remaining 4 hours) [1]: B (B: 25-75% of the tested compound remaining)
Assay 1 (SGF) (% Remaining @ 1 hours) [2]: C (C: >75% of the tested compound remaining)

CCCC(=O)OCC[C@@H](C)OC(=O)Oc1ccc(/C=C/c2cc(OC(=O)O[C@H](C)CCOC(=O)CCC)cc(OC(=O)O[C@H](C)CCOC(=O)CCC)c2)cc1 [Compound 78, (3R,3′R)-((((5-((E)-4-(((((R)-4-(butyryloxy)butan-2-yl)oxy)carbonyl)oxy)styryl)-1,3-phenylene)bis(oxy))bis(carbonyl))bis(oxy))bis(butane-3,1-diyl) dibutyrate]
% Weight change (C57BL/6 DIO mice; ad libitum in HFD): 21%
OGTT (C57BL/6 DIO mice; ad libitum in HFD, ctrl HFD): 29944
% HbA1c (C57BL/6 DIO mice; ad libitum in HFD, ctrl HFD): 6.14%
% Difference compared to ctrl (C57BL/6 DIO mice; ad libitum in HFD): −2%
Assay 2 (SIF) (% @ Remaining 4 hours) [1]: A (A: <25% of the tested compound remaining)
Assay 1 (SGF) (% Remaining @ 1 hours) [2]: C (C: >75% of the tested compound remaining)

CCCC(=O)O[C@H]1OC[C@H](OC(=O)CCC)[C@H](OC(=O)CCC)[C@H]1OC(=O)CCC [Compound 184, (2R,3R,4S,5S)-3,4,5-tris(butanoyloxy)oxan-2-yl Butanoate]
% Weight change (C57BL/6 DIO mice; ad libitum in HFD): 11%
OGTT (C57BL/6 DIO mice; ad libitum in HFD, ctrl HFD): 27257
% HbA1c (C57BL/6 DIO mice; ad libitum in HFD, ctrl HFD): 5.96%
% Difference compared to ctrl (C57BL/6 DIO mice; ad libitum in HFD): −12%

O=C[C@H](O)[C@@H](O)[C@@H](O)CO [L-arabinose]
Cell viability % DMSO (naïve CD4+ T cells; 0.5 mM): = (90%≥ ≤110%: =)
Cell viability % DMSO (naïve CD4+ T cells; 1 mM): = (90%≥ ≤110%: =)
activity at 500 µM (naïve CD4+ T cells; Homo sapiens, CD4+ T, 144 h, 0.5 mM, read-out: Treg induction % DMSO): 90 to 110%
activity at 1000 µM (naïve CD4+ T cells; Homo sapiens, CD4+ T, 144 h, 1 mM, read-out: Treg induction % DMSO): 90 to 110%
activity at 500 µM (Mouse 3T3-L1 cells; Mus musculus, 3T3-L1, 0.5 mM, 24 hours, read-out: Lipolysis Free Fatty Acids % DMSO): 50 to 70%
activity at 1000 µM (Mouse 3T3-L1 cells; Mus musculus, 3T3-L1, 1 mM, 24 hours, read-out: Lipolysis Free Fatty Acids % DMSO): 50 to 70%
activity at 500 µM (Mouse myocyte; Mus musculus, 0.5 mM, read-out: Free glycerol % DMSO): 70 to 90%
activity at 1000 µM (Mouse myocyte; Mus musculus, 1 mM, read-out: Free glycerol % DMSO): 70 to 90%

CC[C@H]1[C@@H](O)[C@@H]2[C@H](CC[C@]3(C)[C@@H]([C@H](C)CCC(=O)O)CC[C@@H]23)[C@@]2(C)CC[C@@H](O)C[C@@H]12 [Obeticholic acid, obeticholic acid]
Cell viability % DMSO (naïve CD4+ T cells; 100 uM): = (90%≥ ≤110%: =)
activity at 100 µM (naïve CD4+ T cells; Homo sapiens, CD4+ T, 144 h, 100 uM, read-out: Treg induction % DMSO): 110 to 130%
activity at 100 µM (Mouse 3T3-L1 cells; Mus musculus, 3T3-L1, 100 μM, 24 hours, read-out: Lipolysis Free Fatty Acids % DMSO): 90 to 100%
activity at 100 µM (Mouse myocyte; Mus musculus, 100 μM, read-out: Free glycerol % DMSO): 90 to 100%

CCC(=O)O [Propionic acid]
Cell viability % DMSO (naïve CD4+ T cells; 3 mM): = (90%≥ ≤110%: =)
activity at 3000 µM (Mouse 3T3-L1 cells; [3]): ≤ 50%
activity at 3000 µM (Mouse myocyte; [4]): 50 to 70%

CC(O)CC(=O)[O-].[Na+] (centres unmarked) [Sodium BHB]
Cell viability % DMSO (naïve CD4+ T cells; 2 mM): = (90%≥ ≤110%: =)
Treg induction % DMSO (naïve CD4+ T cells; 2 mM): + (110%> ≤130%: +)
Cell viability % DMSO (naïve CD4+ T cells; 20 mM): − (<90%: −)
Treg induction % DMSO (naïve CD4+ T cells; 20 mM): = (90%≥ ≤110%: =)
Lipolysis Free Fatty Acids % DMSO (Mouse 3T3-L1 cells; 0.2 mM, 24 hours): ++ (50> ≤70%: ++)
Lipolysis Glycerol % change (Mouse 3T3-L1 cells; 0.2 mM, 24 hours): + (70%> ≤90%: +)
cell viability (CellTiter-Glo) (Mouse 3T3-L1 cells; 0.2 mM, 24 hours post-treatment): 86 % of DMSO control
Lipolysis Free Fatty Acids % DMSO (Mouse 3T3-L1 cells; 2 mM, 24 hours): ++ (50> ≤70%: ++)
Lipolysis Glycerol % change (Mouse 3T3-L1 cells; 2 mM, 24 hours): ++ (50> ≤70%: ++)
Lipolysis Free Fatty Acids % DMSO (Mouse 3T3-L1 cells; 20 mM, 24 hours): + (70%> ≤90%: +)
Lipolysis Glycerol % change (Mouse 3T3-L1 cells; 20 mM, 24 hours): ++ (50> ≤70%: ++)
Free glycerol % DMSO (Mouse myocyte; 0.2 mM): ++ (50> <70%: ++)
Free glycerol % DMSO (Mouse myocyte; 2 mM): ++ (50> <70%: ++)

Semaglutide [reference compound]
% HbA1c (C57BL/6 DIO mice; 123.4 μg/kg SC 3 times weekly for 12 weeks, ctrl Saline): 7.90%
OGTT (C57BL/6 DIO mice; 123.4 μg/kg SC 3 times weekly, ctrl Saline): 18214

Source: patent publication US10953027B2, “Active agents and methods of their use for the treatment of metabolic disorders and nonalcoholic fatty liver disease” (Flagship Pioneering Innovations V, Inc., priority 2018, dated 2021)
